This assay is described as follows: Electrophysiological assays in Xenopus oocytes expressing cloned NMDA receptor (NR1A/2C). The format is cell-based. Particulars: Rattus norvegicus, Oocyte.
Take `Oc1nc2cc(Cl)cc(Cl)c2nc1O`: the IC50 was 280 nM.

Take `Oc1nc2cc(Cl)c(Cl)cc2nc1O` [2,3-DIHYDROXY-6,7-DICHLOROQUINOXALINE]: the IC50 came to 130 nM.

In the case of `Nc1c(Cl)c(Cl)cc2c1[nH]c(=O)c(=O)n2O`, inhibition was half-maximal at 1800 nM (IC50).

The compound `O=c1[nH]c2cc(Cl)c(Cl)cc2n(O)c1=O` showed a half-inhibitory concentration (IC50) of 80 nM.

The compound `O=c1[nH]c2c(Cl)cc(C(F)(F)F)cc2n(O)c1=O` showed an IC50 of 25000 nM.

As to `O=c1[nH]c2c(Br)c(Cl)c(Cl)cc2n(O)c1=O`, the half-inhibitory concentration (IC50) came out at 2700 nM.

`O=c1[nH]c2c(Br)cc(Br)cc2n(O)c1=O` registered a 50% inhibitory concentration (IC50) of 20000 nM.

With `Nc1c(Cl)c(Cl)cc2nc(O)c(O)nc12`, it took 93 nM to reach half-maximal inhibition (IC50).

`O=c1[nH]c2c(Cl)c(Cl)c(Cl)cc2n(O)c1=O` registered an IC50 of 2500 nM.

Regarding `Oc1nc2cc(Br)cc(Br)c2nc1O`, the IC50 amounted to 1300 nM.

For `O=c1[nH]c2c(Cl)cc(Cl)cc2n(O)c1=O`, the half-maximal inhibitory concentration (IC50) amounted to 19000 nM.

As for `Oc1nc2cc(C(F)(F)F)cc(Cl)c2nc1O`, the IC50 worked out at 2100 nM.

The compound `O=c1[nH]c2c(Br)cc(C(F)(F)F)cc2n(O)c1=O` had an IC50 of 54000 nM.

The compound `Oc1nc2cc(C(F)(F)F)cc(Br)c2nc1O` displayed an IC50 of 2500 nM.

Consider `Oc1nc2cc(Cl)c(Cl)c(Cl)c2nc1O`, for which the half-maximal inhibitory concentration (IC50) amounted to 30 nM.

As for `Oc1nc2cc(Cl)c(Cl)c(Br)c2nc1O`, 210 nM corresponded to half-maximal inhibition (IC50).

In general, IC50 refers to the midpoint of a concentration-inhibition curve.

These data come from ChEMBL document CHEMBL1128978, “1-Hydroxy-1,4-dihydroquinoxaline-2,3-diones: Novel antagonists at NMDA receptor glycine sites” (Bioorg Med Chem Lett, 1996).
